Values quoted from earlier work, collected in paper PMC7321301, “Characteristics of New Peptides GQLGEHGGAGMG, GEHGGAGMGGGQFQPV, EQGFLPGPEESGR, RLARAGLAQ, YGNPVGGVGH, and GNPVGGVGHGTTGT as Inhibitors of Enzymes Involved in Metabolic Syndrome and Antimicrobial Potential” (Molecules, 2020).
Where two headings read alike, the source gives them in different places. No end group written: not given here.

Tests used:
ACE = conditions: cited from earlier work
α-amylase = conditions: no reference given; cited from earlier work

Compound: C[C@H](CS)C(=O)N1CCC[C@H]1C(=O)O [Captropril]
- type of ACE inhibition (ACE): competitive inhibitor

Compound: Thα1: peptide Thα1, ACE inhibitory, from another study (SDAAVDTSSEITTKDLKEKKEVVEEAEN; ends and bridges not checked; UniProt P06454 2-29, looked up)
- ACE inhibitory IC50 (ACE): 2.5 µg/mL

Compound: C[C@H]1O[C@H](O[C@H]2[C@H](O)[C@@H](O)[C@@H](O[C@H]3[C@H](O)[C@@H](O)C(O)O[C@@H]3CO)O[C@@H]2CO)[C@H](O)[C@@H](O)[C@@H]1N[C@H]1C=C(CO)[C@@H](O)[C@H](O)[C@H]1O (stereo partly shown) [acarbose]
- type of α-amylase inhibition (α-amylase): competitive inhibition

Compound: AFKDEDTEEVPFR
- ACE inhibitory IC50 (ACE): 127 µg/mL

Compound: GKHVAVHAR [GHA-8]
- ACE inhibitory activity (ACE): exhibited ACE inhibitory activity

Compound: GKPVAVPA [GA-8]
- ACE inhibitory activity (ACE): exhibited ACE inhibitory activity

Compound: TTFHTSGY
- type of ACE inhibition (ACE; inhibition kinetic analysis): competitive inhibitor
